“Also recorded” adds a separate entry of the source. *1 amine or outer side, *2 acyl side, *3 side chain or, on linkers, in order; H or OH if unused. Where a SMILES comes first, the peptide text is derived from it. Bridges are numbered along the chain shown (N, C = ends). Roman numbers before positions name the chains, in order. [ ]: non-standard residue; d: D form. Actinocin(9to1) = Cc1c2oc3c(C)ccc(C(=O)[*:1])c3nc-2c(C(=O)[*:2])c(N)c1=O; NMeV = CN[C@H](C(=O)O)C(C)C; Sar = CNCC(=O)O
Legend:
[1] = test system: aSynL:total ratio; test: aSynL:total ratio by RT-qPCR in rat primary cortical cultures; format: cell-based; settings: rat primary cortical neurons, RT-qPCR; dopamine, picrotoxin, muscimol, NMDA 100 μM, kainic acid 50 μM; vs vehicle
Description: Cultures of rodent neurons were prepared as described in ^53. Cells were maintained in vitro for 3-5 days before drug treatments or transfection using Lipofectamine 2000 (Iinvitrogen) following manufacturer's instructions.
RT-qPCR analyses were performed as described ^60. The human aSynL:Total mRNA ratio was quantified in terms of AACt ^60 using primer pair Lh for the human long form (HaSynLfw [[…]] SEQ ID NO: 13, and HaSynLry [[…]]) SEQ ID NO: 14 and primer pair Th for human total (HaSynTfw [[…]] SEQ ID NO: 15 and HaSynTrv [[…]] SEQ ID NO: 16). For analysis of either mouse or rat, primer pairs mrL (RaSynLfw [[…]] SEQ ID NO: 17 and RaSynLrv [[…]] SEQ ID NO: 18) and mrT (RaSynTfw [[…]] SEQ ID NO: 19, RaSynTry [[…]] SEQ ID NO: 20) were used.

[2] = test system: human aSyn 3′UTR; test: Firefly luciferase-aSyn 3′UTR reporter assay in SH-SY5Y cells; format: cell-based
Description: The human SH-SY5Y neuroblastoma cell line (ATCC) was cultured following the distributor's instructions. Cells were plated at a density of 4×10^5 cells per well (in 48-well plates) in wells coated with 0.1% gelatin (Specialty Media, Millipore) 24 hours prior to transfection. Transfections were performed with Lipofectamine 2000 reagent (Invitrogen) following the manufacturer's instructions. The human HEK-293T cell line (ATCC) was cultured in DMEM (Invitrogen) supplemented with 10% FBS (Invitrogen). Cells were plated at a density of 8×10^3 cells per well (96-well plates). Mir-34b-3p precursor, specific Anti-miR Mir-34b-3p inhibitor, Anti-miR Negative Control #1, and Pre-miR Negative Control #1 were purchased from Ambion. Cells were co-transfected with luciferase reporter plasmids and a small RNA or inhibitor (as indicated) using siPort NeoFx reagent (Ambion) following manufacturer's protocol. Luciferase and Renilla activities were measured 24 h or 48 h after transfection using Dual-Glo luciferase assay system (Promega).

[3] = test system: aSynL/total ratio; test: aSynL/total ratio in SK-N-MC cells treated with chronic low-dose rotenone (reanalysis of GEO GSE4773); format: cell-based, human; settings: one or two weeks vs vehicle
[4] = test system: aSynL:total ratio; test: aSynL:total ratio in total RNA of SH-SY5Y cells by RT-qPCR (transcription inhibition); format: cell-based, human; settings: actinomycin D 10 μg/mL with dopamine 100 μM, total RNA, 12 or 24 h

SMILES: NCc1cc(=O)[nH]o1 [muscimol]
- aSynL:total ratio [1]: alter
- luciferase expression, Firefly/Renilla ratio, 1.1 kb human aSyn 3′UTR vector ([2]; SH-SY5Y, 100 μM for 24 h): decreased

SMILES: C=C(C)[C@H]1Cc2c(ccc3c2O[C@@H]2COc4cc(OC)c(OC)cc4[C@@H]2C3=O)O1 [rotenone]
- aSynL/total ratio (Affymetrix probesets 204467_s_at and 211546_x_at) [3]: predictably modify; also recorded: increased
- aSynL/total ratio (Affymetrix probesets 204467_s_at and 211546_x_at) ([3]; listed as Rotenone): Mitochondrial toxin increases aSynL: total ratio

SMILES: CN1CCCC1c1cccnc1 (stereo not shown) [nicotine]
- expression of an aSynL-3′UTR bearing reporter gene (Firefly/Renilla) ([2]; nicotine 100 μM, with or without dopamine 100 μM, 24 h): decreases

SMILES: Cc1c2oc3c(C)ccc(C(=O)N[C@@H]4C(=O)N[C@H](C(C)C)C(=O)N5CCC[C@H]5C(=O)N(C)CC(=O)N(C)[C@@H](C(C)C)C(=O)O[C@@H]4C)c3nc-2c(C(=O)N[C@@H]2C(=O)N[C@H](C(C)C)C(=O)N3CCC[C@H]3C(=O)N(C)CC(=O)N(C)[C@@H](C(C)C)C(=O)O[C@@H]2C)c(N)c1=O [actinomycin D] (I: T[dV]P[Sar][NMeV] / II: T[dV]P[Sar][NMeV]; ester I:1-I:C, II:1-II:C; linker I:N-II:N via Actinocin(9to1))
- dopamine-mediated increase in aSynL:total ratio [4]: prevented the increase

SMILES: C=C(C)[C@H]1CN[C@H](C(=O)O)[C@H]1CC(=O)O [kainic acid]
- aSynL:total ratio [1]: did not appear to impact
